Test results reported in patent publication US7714014B2, “Targeting GLI proteins in human cancer by small molecules” (The Regents of the University of California, priority 2005, dated 2010).
Entries after “also recorded” stand apart in the source; their conditions may differ.

Key:
Colon Cancer HT29 tumor = test: Mouse Xenograft Model (Colon Cancer HT29); type: in vivo
Experimental: The small molecule compound FN1-8 was tested in vivo in the mouse xenograft model bearing human cancer cells. Briefly, female athymic nude mice strain NCRNU-M (5-10 weeks old, 20-25 grams in weight; Taconic, Germantown, N.Y.) was maintained in pathogen-free conditions. Three human cancer cell lines: NSCLC H460, melanoma LOX, (both showing Gli3 activation), and colon cancer HT29 (no Gli3 activation, as a negative control), were used. Ten mice were used in each group and injected s.c. with 3×10^6 cancer cells in the dorsal area in a volume of 100 μl. After inoculation, human cancer cells were allowed to grow in mice for 7 days to become visible tumor nodules. Animals were then injected with small molecule compound FN1-8 at a dose of 50 mg/kg body weight (1 mg/mouse per day). DMSO alone was used as control. The compounds and controls were adjusted in 40 ul volume for i.p. injection in the abdomens of the mice. […] Tumor size was measured every three days, and tumor volumes were calculated using width (x) and length (y) (x^2y/2, where x<y). […]
In vivo efficacy study of small molecule compound FN1-8 were also performed using a negative Mouse Xenograft Model (Colon Cancer HT29). […] Tumor size was measured with a caliper every three days. Tumor volumes were calculated using the equation x^2y (where x<y). […]

[1] = test system: Dvl-3, cytosolic β-catenin, Survivin in NSCLC cells H460, A549, and H838; test: Western blot of canonical Wnt signaling components; type: cell-based, human; conditions: 30 μM, 2 days; for Dvl-3 and cytosolic beta-catenin levels (Western blot): H460, A549, H838
Experimental: (§1) Whole proteins from cell cultures with or without treatments with small molecule compounds (30 μM for 2-3 days) were prepared using standard protocols (Pierce Biotechnology, Rockford, Ill.). Protein concentrations were measured using Bio-Rad Protein Assay reagent. Whole cell lysate protein (5-20 ug) were boiled for 5 min and separated by 10-20% SDS-PAGE. Proteins were transferred to an Immobilon-P membrane (Millipore Corp., Bedford, Mass.) using semi-dry transfer cell (Bio-Rad; Benicia, Calif.). The membranes were blocked with 5% nonfat milk powder and 0.1% Tween 20 in Tris-buffer saline overnight at 4° C. and then incubated with primary antibody for 1 h at room temperature. Membranes were washed in 5% nonfat milk powder and 0.1% Tween 20 in Tris-buffer saline for three 10-min periods. Horseradish peroxidase-conjugated goat anti-rabbit or donkey anti-mouse antibodies were used as secondary antibodies. Proteins were visualized with chemiluminescence luminol reagents (Santa Cruz Bio-technology). Anti-Dvl-3, and anti-Survivin, antibodies were from Santa Cruz Biotechnology (Santa Cruz, Calif.). Anti-Caspase3 antibody was from Oncogene (Cambridge, Mass.). Anti-β-Actin antibody was from Sigrna-Aldrich Corp. (St. Louis, Mo.). Anti-β-catenin antibody was from Transduction Laboratories (Lexington, Ky.). Anti-Cytochrome c antibody was from BD Biosciences (San Diego, Calif.). For detecting alteration of β-catenin cytosolic extracts were prepared and examined as described previously in the publications from our lab.

[2] = test system: Dvl-3, cytosolic β-catenin, Survivin in colon cancer cells SW480, HT29, and CaCO2; test: Western blot of canonical Wnt signaling components; type: cell-based, human; conditions: 30 μM, 2 days; for Dvl-3 and cytosolic beta-catenin levels (Western blot): SW480, HT29, CaCO2
Experimental: as §1

[3] = test system: Tcf-mediated gene transcription (canonical Wnt signaling) in colon cancer cell line HCT116; test: TOPFLASH (TOP/FOP) assay; type: cell-based, human; conditions: HCT116, 30 μM; for TOP/FOP activity: 18-24 hours
Experimental: Cells were plated in 12-well plates. The TOPFLASH or FOPFLASH reporter plasmid (Upstate; Charlottesville, Va.) was transfected transiently into cells as described above. Tcf-mediated gene transcription was determined by the ratio of pTOPFLASH:pFOPFLASH luciferase activity, each was normalized to luciferase activities of the pRL-TK reporter (co-transfected internal control). All experiments were performed in triplicate, and repeated three times.
As another specificity test of the small molecule compounds of the invention, it was tested whether small molecule compounds FN1-5, FN1-7, FN1-8, FN1-9U, FN1-9S, FN2-1, and FN3-5 could regulate the transcription activity of the canonical Wnt signaling by using TOP/FOP assay.

[4] = test system: human hepatocellular carcinoma cell lines HEPG2 and SK-Hep-1; test: Cell survival assay (crystal violet); type: cell-based; conditions: for cell killing: 50 μM
Experimental: Typically, the small molecule compounds of the present invention were dissolved in DMSO at a concentration of 30 mM. The small molecule compounds were then tested under cell culture conditions at different concentrations ranging from 0, 10, 30, 50, to 100 uM. To determine cell survival after treatment, the cells were incubated with the small molecule compounds in 6-well plates for about 3 days. After removal of the cell culture medium, 1-ml of 0.5% crystal violet solution (prepared in 20% ethanol and 20% methanol) was added to stain the cells for 5 min. Then the crystal violet solution was rinsed clean with tap water. Cell survival was estimated based on the density of crystal stained plates.
The cell-based cytotoxicity assay described herein was used to determine the effect of small molecule compounds FN1-5 and FN1-8 in the human hepatocellular carcinoma cell lines HEPG2 and SK-Hep-1. Viability of these cells was analyzed after treatment with 10, 30 and 50 μM FN1-5 or FN1-8.

With `O=C(NCCCCCO)C1C(c2ccccc2)=NN(c2ccccc2)C1c1ccccc1` (stereo not drawn) [FN1-5, N-(5-Hydroxypentyl)-1,3,5-triphenyl-4,5-dihydro-pyrazole-4-carboxyamide] the tumor weight (Colon Cancer HT29 tumor; 15 mg/kg daily 2×6 days then 30 mg/kg daily 1×6 days i.p., 43 days after inoculation) was “slightly decreased the tumor weight”, the “Dvl-3 and cytosolic beta-catenin levels (Western blot)” value [1] was “suppress canonical Wnt signaling” and the “Dvl-3 and cytosolic beta-catenin levels (Western blot)” value [2] was “suppress canonical Wnt signaling”. For the same molecule, the TOP/FOP activity [3] was “down-regulate TOP/FOP activity dramatically” and the cell killing [4] was “dramatic cell killing”.
For `O=C(NCCc1ccc(O)cc1)C1C(c2ccccc2)=NN(c2ccccc2)C1c1ccccc1` (stereo not drawn) [FN1-8, N-(2-(4-Hydroxyphenyl)ethyl)-1,3,5-triphenyl-4,5-dihydro-pyrazole-4-carboxyamide], the tumor growth (Colon Cancer HT29 tumor; 50 mg/kg i.p. daily for 2×6 days) was “not affected”, the “Survivin level (Western blot)” value [1] was “down-regulated” and the “Dvl-3 and cytosolic beta-catenin levels (Western blot)” value [1] was “dramatic down-regulation; also recorded: suppress canonical Wnt signaling”. For the same molecule, the “Survivin level (Western blot)” value [2] was “down-regulated”, the “Dvl-3 and cytosolic β-catenin levels (Western blot)” value ([2]; HT29 cells only) was “no down-regulation” and the “Dvl-3 and cytosolic beta-catenin levels (Western blot)” value [2] was “dramatic down-regulation; also recorded: suppress canonical Wnt signaling”. For the same molecule, the “reduction of TOP/FOP activity” value [3] was “about 36%”, the TOP/FOP activity [3] was “down-regulate TOP/FOP activity dramatically” and the “cell killing potency compared with FN1-5” value [4] was “more potent”. The cell killing [4] was “dramatic cell killing”.
